Reference: publication PMC5175396, “Cytotoxicity of Plumbagin, Rapanone and 12 other naturally occurring Quinones from Kenyan Flora towards human carcinoma cells” (BMC Pharmacology & Toxicology, 2016)
Read-outs that look alike come from different tables or passages of the source.

How the values were obtained:
[1] = test system: MCF-7 breast adenocarcinoma cells; test: Neutral red (NR) uptake cytotoxicity assay, MCF-7; type: cell-based, human; conditions: for IC50: neutral red assay, 72 h incubation, read-out: IC50 MCF-7; for selectivity index MCF-7: IC50 in CRL2120 normal fibroblasts divided by IC50 in MCF-7
Source text: (§1) Six human cancer cell lines and one normal cell line were used in this study. They included A549 human non-small cell lung cancer (NSCLC) cell line, obtained from the Institute for Fermentation, Osaka (IFO, Japan) and provided by Prof. Dr. Tansu Koparal (Anadolu University, Eskisehir, Turkey), SPC212 human mesothelioma cell line obtained from American Type Culture Collection (ATCC) and provided by Dr. Asuman Demiroğlu Zergeroğlu (Gebze Technical University, Kocaeli, Turkey), DLD-1 colorectal adenocarcinoma cell lines obtained from ATCC (CCL-221), Caco2 colorectal adenocarcinoma cells (ATCC, HTB-37) obtained from the ŞAP Institute of Turkey (Ankara), HepG2 hepatocarcinoma cells (ATCC, HB-8065) and MCF-7 breast adenocarcinoma cells (ATCC, HTB-22) were provided by Prof. Dr. Tansu Koparal (Anadolu University, Eskisehir, Turkey). The normal CRL2120 human skin fibroblasts were obtained from ATCC [CCD1094Sk (ATCC, CRL-2120)]. The cells were maintained as a monolayer in DMEM medium (Sigma-aldrich, Munich, Germany) medium supplemented with 10% fetal calf serum and 1% penicillin (100 U/mL)-streptomycin (100 μg/mL) in a humidified 5% CO2 atmosphere at 37 °C.
(§2) The cytotoxicity of samples was performed by NR uptake assay as previously described. This method is based on the ability of viable cells to incorporate and bind the supravital dye NR in the lysosomes. The procedure is cheaper and more sensitive than other cytotoxicity tests. […] Briefly, cells were detached by treatment with 0.25% trypsin/EDTA (Invitrogen) and an aliquot of 1 × 10^4 cells was placed in each well of a 96-well cell culture plate […]. The cells were allowed to attach overnight and subsequently treated with different concentrations of the 14 compounds. Each of the studied samples was immediately added in varying concentrations in additional 100 μL of culture medium to obtain a total volume of […]/well. After 72 h incubation in humidified 5% CO2 atmosphere at 37 °C, the medium was removed and 200 μL fresh medium containing 50 μg/mL NR was added to each well and incubation continued for an additional 3 h at 37 °C in 5% CO2 atmosphere. The dye medium was then removed and each well was then washed rapidly with 200 μL phosphate buffer saline (PBS) followed by addition of 200 μL of acetic acid-water-ethanol in water (1:49:50). The plates were kept for 15 min at room temperature to extract the dye and then shaken for a few minutes on a GFL 3012 shaker (Gesellschaft für Labortechnik mbH, Burgwedel, Germany). Absorbance was measured on ELx 808 Ultra Microplate Reader (Biotek) equipped with a 540 nm filter. Each assay was done at least three times, with three replicates each. The viability was evaluated based on a comparison with untreated cells. The IC50 values represent the sample’s concentrations required to inhibit 50% of cell proliferation and were calculated from a calibration curve by linear regression using Microsoft Excel.

[2] = test system: HepG2 hepatocarcinoma cells; test: Neutral red (NR) uptake cytotoxicity assay, HepG2; type: cell-based, human; conditions: for IC50: Homo sapiens, HepG2, neutral red assay, 72 h incubation, read-out: IC50 HepG2; for selectivity index HepG2: IC50 in CRL2120 normal fibroblasts divided by IC50 in HepG2
Source text: as §1, §2

[3] = test system: normal CRL2120 human skin fibroblasts; test: Neutral red (NR) uptake cytotoxicity assay, normal CRL2120 fibroblasts; type: cell-based; conditions: Skin fibroblast, 72 h incubation
Source text: as §1, §2

[4] = test system: SPC212 human mesothelioma cell line; test: Neutral red (NR) uptake cytotoxicity assay, SPC212; type: cell-based; conditions: for IC50: neutral red assay, 72 h incubation, read-out: IC50 SPC212; for selectivity index SPC212: IC50 in CRL2120 normal fibroblasts divided by IC50 in SPC212
Source text: as §1, §2

[5] = test system: A549 human non-small cell lung cancer (NSCLC) cell line; test: Neutral red (NR) uptake cytotoxicity assay, A549; type: cell-based; conditions: for IC50: Homo sapiens, A549, 72 h, neutral red assay, 72 h incubation; for selectivity index A549: IC50 in CRL2120 normal fibroblasts divided by IC50 in A549
Source text: as §1
as §2, with “lysosomes.” for “lysosomes. The procedure is cheaper and more sensitive than other cytotoxicity tests.”

[6] = Neutral red (NR) uptake cytotoxicity assay, Caco-2; type: cell-based, human; conditions: human; IC50 in CRL2120 normal fibroblasts divided by IC50 in Caco-2; read-out: selectivity index Caco-2 (converted)
Source text: as §1, §2

[7] = test system: Caco2 colorectal adenocarcinoma cells; test: Neutral red (NR) uptake cytotoxicity assay, Caco-2; type: cell-based, human; conditions: Homo sapiens, Caco-2; neutral red assay, 72 h incubation
Source text: as §1, §2

[8] = test system: six tested cancer cell lines (A549, SPC212, DLD-1, Caco-2, MCF-7, HepG2); test: Neutral red uptake assay, statements over the six tested cancer cell lines; type: cell-based, human; conditions: for IC50: Homo sapiens, bound valid for all six cancer cell lines, neutral red assay; for tested cancer cell lines in which recordable IC50 values were obtained: out of six cancer cell lines
Source text: as §1, §2

[9] = test system: DLD-1 colorectal adenocarcinoma cell lines; test: Neutral red (NR) uptake cytotoxicity assay, DLD-1; type: cell-based, human; conditions: for IC50: Homo sapiens, DLD-1, neutral red assay, 72 h incubation, read-out: IC50 DLD-1; for selectivity index DLD-1: IC50 in CRL2120 normal fibroblasts divided by IC50 in DLD-1
Source text: as §1, §2

SMILES	IC50 ([1]; Homo sapiens, MCF7, 72 h) [µM]	selectivity index MCF-7 [1]	IC50 [2] [µM]	selectivity index HepG2 [2]	IC50 [3] [µM]	IC50 ([4]; Homo sapiens, 72 h) [µM]	selectivity index SPC212 [4]	IC50 [4] [µM]	IC50 [5] [µM]	selectivity index A549 [5]	selectivity ratio at 72 h [6]	IC50 [7] [µM]	IC50 [8] [µM]	IC50 [9] [µM]	selectivity index DLD-1 [9]	IC50 [1] [µM]	selectivity indexes (CRL2120 vs carcinoma cells), lower bound over the cancer cell lines ([8]; IC50 CRL2120 / IC50 cancer cell line)	tested cancer cell lines in which recordable IC50 values were obtained [8]
CCCCCCCCCCCCCCCC1=C(O)C(=O)C=C(O)C1=O [Compound 10, 2,5-dihydroxy-3-pentadecyl-2,5-cyclohexadiene-1,4-dione]	30.4 ± 8.64	> 4.09	48.4 ± 3.73	> 2.57	> 124	< 10	> 14.81	8.39 ± 0.48	43.3 ± 2.72	> 2.87	> 4.47	27.8 ± 2.03	< 100	51.2 ± 5.54	> 2.43			
CCCCC=CCCCCCCCCCCCCCC1=C(OC)C(=O)C=C(OC)C1=O [Compound 12, 2,5 dimethoxy-6-(14-nonadecenyl)-1,4-benzoquinone]	> 129		> 129		> 129	> 129			> 129			> 129	> 120	> 129				
CCCC/C=C\CCCCCCCCCCCCCC1=C(OC(C)=O)C(OC(C)=O)C(C)=C(OC(C)=O)C1OC(C)=O (stereo not shown) [Compound 13, 1,2,4,5-tetraacetate-3-methyl-6-(14-nonadecenyl)-cyclohexadi-2,5-diene]	< 10	10.08	18.2 ± 1.46	5.13	93.2 ± 1.17	36.2 ± 3.08	2.57		47.5 ± 3.56	1.96	3.78	24.6 ± 2.71	< 100	25.1 ± 1.5	3.72	9.25 ± 0.16	> 1.96	
CCCCCCCCCCCC1=C(O)C(=O)C=C(OC)C1=O [Compound 11, 2-hydroxy-5-methoxy-3-undecyl-1,4-benzoquinone]	22.6	1.96	61.3 ± 5.53	0.72	44.2 ± 0.2	38.3 ± 3.23	1.15		50.3 ± 2.6	0.88	1.14	38.9 ± 2.35	< 100	45.4 ± 4.89	0.97	22.6 ± 1.57		
CCCCCCCC1=C(O)C(=O)C=C(O)C1=O [Compound 8, 2,5-dihydroxy-3-heptyl-2,5-cyclohexadiene-1,4-dione]	38.8 ± 3.33	3.16	94.2 ± 2.7	1.16	117 ± 1.22	< 10			108 ± 17.9		2.27	63.9 ± 5.97		> 168				5/6
CCCCC1=C(O)C(=O)C=C(O)C1=O [Compound 7, 2,5-dihydroxy-3-butyl-2,5-cyclohexadiene-1,4-dione]	64.6 ± 13.4	> 3.16	176 ± 28.5	> 1.16	> 204	87.9 ± 5.66	> 2.32		68.6 ± 7.55	> 2.97	> 2.27	89.7 ± 8.8		> 204				5/6
CCCC1=C(O)C(=O)C=C(O)C1=O [Compound 6, 2,5-dihydroxy-3-propyl-2,5-cyclohexadiene-1,4-dione]	162 ± 11.4		> 222		> 222	> 222			> 222			> 222		> 222				1/6
CCC1=C(O)C(=O)C=C(O)C1=O [Compound 5, 2,5-dihydroxy-3-ethyl-2,5-cyclohexadiene-1,4-dione]	> 238		> 238		95.5 ± 5.64	> 238			> 238			> 238	> 120	> 238				
COC(=O)c1c(O)cc2c(c1C)C(=O)c1c(O)cc(O)cc1C2=O [Compound 3, 3,6,8-trihydroxy-1-methylanthraquinone-2-carboxylic acid methyl ester]	> 122		> 122		> 122	> 122			> 122			> 122	> 120	> 122				
COC1=CC(=O)C(O)=C(CCCCCCCC=CCCCCCCCC2=C(O)C(=O)C(C)=C(O)C2=O)C1=O [Compound 14, ardisiaquinone B]	> 123		115 ± 4.29	0.62	71.3 ± 5.23	3.14 ± 0.78	22.72		21.7 ± 1.5	3.29		> 123		114 ± 3.68	0.62			4/6
Cc1cc(O)c2c(c1)C(=O)c1cccc(O)c1C2=O [Compound 1, chrysophanol]	> 157		> 157		> 157	146 ± 10.6	> 1.08		52.2 ± 5.51	> 3.01		> 157		> 157				2/6
